Measured values: patent US11999806B2, “Broad-spectrum polypeptide against enterovirus and application thereof” (WUHAN INSTITUTE OF VIROLOGY, CHINESE ACADEMY OF SCIENCES, priority 2018, dated 2024)
Values joined by “and” are separate entries in the source; they are usually repeats but may differ in a detail not shown here. Equal values may be shown once. No end group written: not given here.

Legend:
[1] = system: RD cells; assay: Cytotoxicity by CCK-8 in RD cells; assay type: cell-based; conditions: RD cells; for Cell viability (%): 24 h, untreated = 100%; for cytotoxicity, result in words: CCK-8, 24 h
Method: (§1) The experiment was performed as follows. • (1) RD cells were plated in a 96-well plate at 100 μl per well. • (2) After the cells reached 70%-80% confluence, the MEM medium containing 10% serum was replaced with a MEM medium containing 2% serum. Then, polypeptide P2 was added to generate gradient concentrations of 0.01 μM, 0.1 μM, 1 μM, 10 μM, and 100 μM (final concentration), respectively. • (3) The test was performed 24 hours after the addition of the polypeptide, and 10 μl of viable cell detection reagent CCK-8 was added to each well and mixed well. • (4) The plate was incubated at 37° C. for 2 h. • (5) The absorbance value at OD450 was measured with a microplate reader.
as §1, with “P1” for “P2”, “concentrations),” for “concentration),”
(§2) RD cells were used to test the antiviral effect of polypeptide P1. When RD cells reached 80% confluence, polypeptide P1 was added at concentrations of 0 μM (control group), 0.01 μM, 0.1 μM, 1 μM, 10 μM, and 100 μM, respectively. Three parallel wells were used for each concentration. The test was carried out 24 hours later, and the cell viability was detected using the CCK-8 kit.
as §1, with “3A-TAT-EP” for “P2”, “concentrations),” for “concentration),”
as §2, with “3A-TAT-EP.” for “P1.”, “3A-TAT-EP” for “P1”
as §1, with “Then, 3A-EP-DRI or 3A-EP-PEG4-PA” for “Then, polypeptide P2”, “and 50” for “and 100”, “(final concentrations),” for “(final concentration),”
as §2, with “polypeptides 3A-EP-DRI and 3A-EP-PEG4-PA.” for “polypeptide P1.”, “3A-EP-DRI or 3A-EP-PEG4-PA” for “P1”, “50” for “100”, “kit. […]” for “kit.”

[2] = Cytotoxicity by CCK-8 in RD cells; assay type: cell-based; conditions: human; for viability at 24 h, 0.01 µM: 0.01 μM polypeptide; for viability at 24 h, 0.01 µM / viability at 24 h, 0.1 µM / viability at 24 h, 1 µM / viability at 24 h, 10 µM / viability at 24 h, 100 µM: untreated = 100%, read-out: Cell viability (%); for viability at 24 h, 0.1 µM: 0.1 μM polypeptide; for viability at 24 h, 1 µM: 1 μM polypeptide; for viability at 24 h, 10 µM: 10 μM polypeptide; for viability at 24 h, 100 µM: 100 μM polypeptide; for CC50 at 24 h: Table 1 summary, cell line not given, read-out: CC50
Method: as §1
as §1, with “P1” for “P2”, “concentrations),” for “concentration),”
as §2
as §1, with “3A-TAT-EP” for “P2”, “concentrations),” for “concentration),”
as §2, with “3A-TAT-EP.” for “P1.”, “3A-TAT-EP” for “P1”
as §1, with “Then, 3A-EP-DRI or 3A-EP-PEG4-PA” for “Then, polypeptide P2”, “and 50” for “and 100”, “(final concentrations),” for “(final concentration),”
as §2, with “polypeptides 3A-EP-DRI and 3A-EP-PEG4-PA.” for “polypeptide P1.”, “3A-EP-DRI or 3A-EP-PEG4-PA” for “P1”, “50” for “100”, “kit. […]” for “kit.”

Molecule: CC[C@H](C)[C@H](NC(=O)[C@H](Cc1c[nH]c2ccccc12)NC(=O)CNC(=O)[C@H](CCC(N)=O)NC(=O)[C@H](CCC(=O)O)NC(=O)[C@H](CCCNC(=N)N)NC(=O)[C@H](CS)NC(=O)[C@H](Cc1ccc(O)cc1)NC(=O)[C@H](CCC(N)=O)NC(=O)[C@H](CCCNC(=N)N)NC(=O)[C@@H](NC(=O)[C@H](CCC(=O)O)NC(=O)[C@H](CCC(=O)O)NC(=O)CNC(=O)[C@H](CO)NC(=O)CNC(=O)[C@H](CCCNC(=N)N)NC(=O)[C@H](CCCNC(=N)N)NC(=O)[C@H](CCCNC(=N)N)NC(=O)[C@H](CCC(N)=O)NC(=O)[C@H](CCCNC(=N)N)NC(=O)[C@H](CCCNC(=N)N)NC(=O)[C@H](CCCCN)NC(=O)[C@H](CCCCN)NC(=O)[C@H](CCCNC(=N)N)NC(=O)CNC(=O)[C@@H](N)Cc1ccc(O)cc1)C(C)C)C(=O)N[C@H](C(=O)N1CCC[C@H]1C(=O)O)[C@@H](C)CC [3A-TAT-EP]
- Cell viability (%) ([1]; 0.01 μM polypeptide): 98.82% and 106.3%
- Cell viability (%) ([1]; 0.1 μM polypeptide): 104.9% and 99.14%
- Cell viability (%) ([1]; 1 μM polypeptide): 105.5% and 102.9%
- Cell viability (%) ([1]; 10 μM polypeptide): 107.1% and 98.61%
- Cell viability (%) ([1]; 100 μM polypeptide): 97.06% and 98.38%
- cytotoxicity, result in words [1]: not toxic to cells within 100 μM
- viability at 24 h, 0.01 µM ([2]; RD cells): 103%
- viability at 24 h, 0.1 µM ([2]; RD cells): 106%
- viability at 24 h, 1 µM ([2]; RD cells): 103%
- viability at 24 h, 10 µM ([2]; RD cells): 103%
- viability at 24 h, 100 µM ([2]; RD cells): 100%
- CC50 at 24 h [2]: > 100 µM

Molecule: RRRRRRRRAISDLLAS [P1]
- Cell viability (%) ([1]; 0.01 μM polypeptide): 98.82% and 106.3%
- Cell viability (%) ([1]; 0.1 μM polypeptide): 104.9% and 99.14%
- Cell viability (%) ([1]; 1 μM polypeptide): 105.5% and 102.9%
- Cell viability (%) ([1]; 10 μM polypeptide): 107.1% and 98.61%
- Cell viability (%) ([1]; 100 μM polypeptide): 97.06% and 98.38%
- cytotoxicity, result in words [1]: not toxic to cells within 100 μM
- viability at 24 h, 0.01 µM ([2]; RD cells): 103%
- viability at 24 h, 0.1 µM ([2]; RD cells): 106%
- viability at 24 h, 1 µM ([2]; RD cells): 103%
- viability at 24 h, 10 µM ([2]; RD cells): 103%
- viability at 24 h, 100 µM ([2]; RD cells): 100%
- CC50 at 24 h [2]: > 100 µM

Molecule: N=C(N)NCCC[C@H](NC(=O)[C@H](CCCNC(=N)N)NC(=O)[C@H](CCCNC(=N)N)NC(=O)[C@H](CCCNC(=N)N)NC(=O)[C@H](CCCNC(=N)N)NC(=O)[C@H](CCCNC(=N)N)NC(=O)[C@H](CCCNC(=N)N)NC(=O)[C@@H](N)CCCNC(=N)N)C(=O)O [R8, reference compound]
- viability at 24 h ([2]; RD cells, Cell viability (%)): 104%
